Experimental findings from patent US11485736B2 (KSQ Therapeutics, Inc., priority 2018, dated 2022) are described below.

One experiment deals with USP1/UAF1 (Homo sapiens (Human), UniProt O94782). The experiment can be described thus: Deubiquitination assay for USP1/UAF1 activity (ubiquitin-rhodamine 110). The class given is biochemical. The conditions noted are these: Table 2; 0.05 nM USP1/UAF1, 150 nM ubiquitin-rhodamine.
USP1/UAF1, sequence (O94782 whole entry): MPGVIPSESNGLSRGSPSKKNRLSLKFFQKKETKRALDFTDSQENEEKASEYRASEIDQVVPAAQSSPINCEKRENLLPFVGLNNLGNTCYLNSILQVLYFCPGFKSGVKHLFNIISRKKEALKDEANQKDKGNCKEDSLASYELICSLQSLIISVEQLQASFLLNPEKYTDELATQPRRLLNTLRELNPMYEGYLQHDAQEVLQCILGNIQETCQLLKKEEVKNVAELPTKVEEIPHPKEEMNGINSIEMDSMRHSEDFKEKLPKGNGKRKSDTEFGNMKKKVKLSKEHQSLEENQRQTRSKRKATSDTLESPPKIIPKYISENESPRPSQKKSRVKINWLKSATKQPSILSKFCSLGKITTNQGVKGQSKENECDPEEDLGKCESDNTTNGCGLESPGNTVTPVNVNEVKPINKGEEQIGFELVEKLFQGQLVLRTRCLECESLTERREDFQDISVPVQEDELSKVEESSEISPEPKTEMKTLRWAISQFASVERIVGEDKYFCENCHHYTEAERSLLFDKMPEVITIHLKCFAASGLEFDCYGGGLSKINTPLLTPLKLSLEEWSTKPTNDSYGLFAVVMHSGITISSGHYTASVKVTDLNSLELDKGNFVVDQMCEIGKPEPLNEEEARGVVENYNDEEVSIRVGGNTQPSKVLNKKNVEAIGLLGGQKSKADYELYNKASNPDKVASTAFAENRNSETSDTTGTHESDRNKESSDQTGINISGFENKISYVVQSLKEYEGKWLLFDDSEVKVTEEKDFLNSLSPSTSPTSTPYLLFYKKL
USP1/UAF1, sequence (Q8TAF3 whole entry partner): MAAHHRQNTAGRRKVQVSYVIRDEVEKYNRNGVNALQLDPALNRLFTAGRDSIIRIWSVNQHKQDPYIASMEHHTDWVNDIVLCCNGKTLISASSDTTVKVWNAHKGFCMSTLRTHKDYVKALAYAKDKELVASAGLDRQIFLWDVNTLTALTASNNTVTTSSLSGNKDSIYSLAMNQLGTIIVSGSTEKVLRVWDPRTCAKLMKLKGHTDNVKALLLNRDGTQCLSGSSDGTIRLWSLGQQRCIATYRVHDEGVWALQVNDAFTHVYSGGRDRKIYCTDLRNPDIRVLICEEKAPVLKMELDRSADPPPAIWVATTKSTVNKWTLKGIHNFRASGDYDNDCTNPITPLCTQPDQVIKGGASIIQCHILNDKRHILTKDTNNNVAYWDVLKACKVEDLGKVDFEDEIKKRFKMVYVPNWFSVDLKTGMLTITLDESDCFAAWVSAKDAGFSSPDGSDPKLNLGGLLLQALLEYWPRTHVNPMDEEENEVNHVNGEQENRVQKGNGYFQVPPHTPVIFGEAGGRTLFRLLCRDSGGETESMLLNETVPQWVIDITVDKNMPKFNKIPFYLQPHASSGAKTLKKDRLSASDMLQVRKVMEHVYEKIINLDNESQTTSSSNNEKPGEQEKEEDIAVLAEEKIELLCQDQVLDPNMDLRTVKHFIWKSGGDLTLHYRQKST
For `COc1ncnc(C2CC2)c1-c1ncc2cnn(Cc3ccc(-n4nc(C(F)(F)F)cc4C)cc3)c2n1` [drawing 723], the IC50 (usually the point on the concentration scale where inhibition reaches its midpoint) was less than 10 nM.

`Cc1nc(-c2ccccc2C(C)C)nc2c1cnn2Cc1ccc(-c2nc(C(F)(F)F)cn2C)cc1` returned an IC50 of less than 10 nM.

With `Cc1cc(C(F)(F)F)nn1-c1ccc(Cn2ncc3cnc(-c4cccnc4C(C)C)nc32)cc1` [drawing 713], the IC50 was 10 to 100 nM.

With `COc1cccc(OC)c1-c1ncc2cnn(Cc3ccc(-c4nc(C(F)(F)F)cn4C)cc3)c2n1` [drawing 714], the IC50 was 10 to 100 nM.

With `Cc1cc(C(F)(F)F)nn1-c1ccc(Cn2ncc3cnc(-c4ccccc4C(C)C)nc32)cc1` [drawing 716], the IC50 lay in the range of 10 to 100 nM.

Staying with this experiment, now noted: Table 3; 0.05 nM USP1/UAF1, 150 nM ubiquitin-rhodamine.
The compound `CCn1cc(C(F)(F)F)nc1-c1ccc(Cn2ncc3cnc(-c4c(OCc5ccccc5)ncnc4C4CC4)nc32)cc1` returned an IC50 of 100 to 200 nM.

In turn, `COc1ncnc(C2CC2)c1-c1ncc2cnn(Cc3ccc(-n4nc(C(F)(F)F)cc4OC)nc3)c2n1` [drawing 768] showed an IC50 of 10 to 100 nM.

On to `[2H]C([2H])([2H])Oc1ncnc(C2CC2)c1-c1ncc2cnn(Cc3ccc(-c4nc(C(F)(F)F)cn4CC)cc3)c2n1` [drawing 744], for which the IC50 was 10 to 100 nM.

`COc1ncnc(C2CC2)c1-c1ncc2cnn(Cc3ccc(-c4nc(C(F)(F)F)cn4C)c(F)c3)c2n1` [drawing 746]: the IC50 was 10 to 100 nM.

`CCOc1cc(C(F)(F)F)nn1-c1ccc(Cn2ncc3cnc(-c4c(OC)ncnc4C4CC4)nc32)cc1` [drawing 735] yielded an IC50 of less than 10 nM.

For the compound `COc1ncnc(C2CC2)c1-c1ncc2cnn(Cc3ccc(-c4nc(C(F)(F)F)cn4CCF)cc3)c2n1` [drawing 764], the IC50 fell in the range of 10 to 100 nM.

`COCCOc1ncnc(C2CC2)c1-c1ncc2cnn(Cc3ccc(-c4nc(C(F)(F)F)cn4C)cc3)c2n1` [drawing 787] gave an IC50 greater than 200 nM.

The compound `COc1nc(C)c(-c2ncc3cnn(Cc4ccc(-c5nc(C(F)(F)F)cn5C)cc4)c3n2)c(OC)n1` [drawing 793] displayed an IC50 greater than 200 nM.

In turn, `CCn1cc(C(F)(F)F)nc1-c1ccc([C@H](C)n2ncc3cnc(-c4c(OC)ncnc4C4CC4)nc32)cc1` (single isomer, unassigned) [drawing 751] had a concentration for half-maximal inhibition (IC50) of 10 to 100 nM.

In turn, `COc1ncnc(OC)c1-c1ncc2cnn(Cc3ccc(-c4nc(C(F)(F)F)cn4C)cc3)c2n1` [drawing 766] returned an IC50 of 10 to 100 nM.

In turn, `CCn1cc(C(F)(F)F)nc1-c1ccc([C@H](C)n2ncc3cnc(-c4c(OC)ncnc4C4CCC4)nc32)cc1` (single isomer, unassigned) [drawing 748] showed an IC50 of 10 to 100 nM.

For the compound `Cc1cnn(C(C)C)c1-c1ncc2cnn(Cc3ccc(-n4nc(C(F)(F)F)cc4C)cc3)c2n1` [drawing 734], the IC50 is less than 10 nM.

`Cn1cc(C(F)(F)F)nc1-c1ccc(Cn2ncc3cnc(-c4c(OCc5ccccc5)ncnc4C4CC4)nc32)cc1` yielded an IC50 greater than 200 nM.

The same experiment, now with this note: Table 4; 0.05 nM USP1/UAF1, 150 nM ubiquitin-rhodamine.
In turn, `CCn1cc(C(F)(F)F)nc1-c1ccc(Cn2nc(OC)c3cnc(-c4c(OC)ncnc4C4CC4)nc32)cc1F` [drawing 817] had an IC50 of 10 to 100 nM.

Regarding `CCOc1ncnc(C2CC2)c1-c1ncc2c(OCC)nn(Cc3ccc(-c4nc(C(F)(F)F)cn4CC)cc3)c2n1` [drawing 815], the IC50 lay within 10 to 100 nM.

Turning to `COc1ncnc(C2CC2)c1-c1ncc2c(OC)nn(Cc3ccc(-c4cn(C(C)C)c(C(F)(F)F)n4)cc3)c2n1` [drawing 807], the IC50 is 10 to 100 nM.

`COCc1nc2cnc(-c3c(OC)ncnc3C3CC3)nc2n1Cc1ccc(-c2nc(C(F)(F)F)cn2C(C)C)cc1` [drawing 804] registered an IC50 of 10 to 100 nM.

`COc1ncnc(C)c1-c1ncc2ncn(Cc3ccc(-n4nc(C(F)(F)F)cc4C)cc3)c2n1` gave an IC50 greater than 200 nM.
